Where a name gives a salt, the structure may show the parent alone.
How the values were obtained:
[1] = test system: AR-V7 transcriptional activity; test: MMTV-LUC luciferase reporter assay in 22RV1 cells, DHT− (screening and IC50); format: cell-based; conditions: 22RV1 cells, no DHT, control = 100
Method: (§1) A library of antimalarial agents was screened using a luciferase reporter assay to measure changes in AR/AR-V7 transcriptional activity.
(§2) Screening was made primarily with 10 μM of each drug.

[2] = test system: AR transcriptional activity; test: MMTV-LUC luciferase reporter assay in 22RV1 cells, DHT+ (screening and IC50); format: cell-based; conditions: with DHT, control = 100
Method: as §1, §2

Molecule	activity at 10 µM ([1]; Homo sapiens, 10 uM) [%]	MMTV-LUC activity (%) DHT− ([1]; 10 uM) [%]	MMTV-LUC activity (%) DHT+ ([2]; 10 uM) [%]	activity at 10 µM ([2]; Homo sapiens, 10 uM) [%]	also measured
O=C(O)c1cc(O)c2c(c1)C(=O)c1cccc(O)c1C2=O [Rhein]	83 ± 9.2	–	–	–	–
CC1=CC(=O)[C@@H](O)[C@]2(C)[C@H]3[C@@H](O)[C@H](O)[C@]4(C)OC[C@@]35[C@@H](C[C@@H]12)OC(=O)[C@H](O)[C@]54O [Bruceine D]	–	7.9 ± 1.3	1.1 ± 0.1	–	MMTV-LUC activity (%) DHT− ([1]; 0.1 uM): 46.0 ± 6.4%; MMTV-LUC activity (%) DHT− ([1]; 1 uM): 7.0 ± 1.2%; MMTV-LUC activity (%) DHT+ ([2]; 0.1 uM): 32.6 ± 6.2%; MMTV-LUC activity (%) DHT+ ([2]; 1 uM): 2.0 ± 0.2%
Bruceanic acid C	–	68.5 ± 6.3	85.8 ± 14.2	–	–
CCc1nc(N)nc(N)c1-c1ccc(Cl)cc1 [Pyrimethamine]	130.5 ± 0.2	–	–	–	–
C[C@@H]1CC[C@H]2[C@@H](C)C(=O)O[C@@H]3O[C@@]4(C)CC[C@@H]1[C@]32OO4 [Artemisinin]	107 ± 4.3	–	–	156 ± 17.6	–
COC(=O)[C@]12OC[C@]34[C@H]([C@@H](O)[C@@H]1O)[C@@]1(C)C=C(O[C@@H]5O[C@H](CO)[C@@H](O)[C@H](O)[C@H]5O)C(=O)[C@@H](C)[C@@H]1C[C@H]3OC(=O)[C@H](OC(=O)/C=C(\C)C(C)(C)O)[C@@H]24 [Yadanzioside C]	–	110.4 ± 11.6	5.8 ± 0.7	–	MMTV-LUC activity (%) DHT− ([1]; 1 uM): 118.9 ± 18.1%; MMTV-LUC activity (%) DHT+ ([2]; 1 uM): 55.6 ± 0.7%
COC(=O)[C@]12OC[C@@]34[C@@H](CC5=C(C)C(=O)C(O)=C[C@]5(C)[C@H]3[C@@H](O)[C@@H]1O)OC(=O)[C@H](OC(=O)CC(C)C)[C@@H]24 [Dehydrobruceine A]	–	133.8 ± 14.5	164.2 ± 16.0	–	–
CO[C@H]1O[C@@H]2O[C@@]3(C)CC[C@H]4[C@H](C)CC[C@@H]([C@H]1C)[C@@]24OO3 [Artemether]	97.5 ± 19.5	–	–	138 ± 8.8	–
COC(=O)[C@]12OC[C@]34[C@H]([C@@H](O)[C@@H]1O)[C@@]1(C)C=C(O[C@@H]5O[C@H](CO)[C@@H](O)[C@H](O)[C@H]5O)C(=O)[C@@H](C)[C@@H]1C[C@H]3OC(=O)[C@H](OC(=O)/C=C(\C)C(C)C)[C@@H]24 [Bruceantinoside A]	–	6.5 ± 0.9	3.8 ± 1.1	–	MMTV-LUC activity (%) DHT− ([1]; 0.1 uM): 44.9 ± 5.5%; MMTV-LUC activity (%) DHT− ([1]; 1 uM): 11.5 ± 5.6%; MMTV-LUC activity (%) DHT+ ([2]; 0.1 uM): 61.0 ± 7.3%; MMTV-LUC activity (%) DHT+ ([2]; 1 uM): 8.0 ± 0.2%
C=CC(C)(C)c1cc(/C=C/C(=O)c2ccc(O)cc2)c(OC)cc1O [Licochalcone A]	–	202.7 ± 7.1	235.6 ± 0.2	–	–
Yadanziolide C	–	6.0 ± 0.7	1.1 ± 0.1	–	MMTV-LUC activity (%) DHT− ([1]; 0.1 uM): 80.5 ± 2.9%; MMTV-LUC activity (%) DHT− ([1]; 1 uM): 17.4 ± 3.1%; MMTV-LUC activity (%) DHT+ ([2]; 0.1 uM): 92.5 ± 0.9%; MMTV-LUC activity (%) DHT+ ([2]; 1 uM): 12.1 ± 2.0%
CC1CCCCCC(=O)c2c(O)cc(O)cc2CC(=O)O1 (centres unmarked) [Curvularin]	76.8 ± 3	–	–	91.6 ± 9.4	–
CCN(CCO)CCCC(C)Nc1ccnc2cc(Cl)ccc12 (centres unmarked) [Hydroxychloroquinesulfate]	92.3 ± 2	–	–	–	–
COC(=O)[C@]12OC[C@]34[C@H]([C@@H](O)[C@@H]1O)[C@@]1(C)C=C(O[C@@H]5O[C@H](CO)[C@@H](O)[C@H](O)[C@H]5O)C(=O)[C@@H](C)[C@@H]1C[C@H]3OC(=O)[C@H](OC(C)=O)[C@@H]24 [Yadanzioside F]	–	133.6 ± 21.7	139.5 ± 11.0	–	–
COC(=O)[C@]12OC[C@]34[C@H]([C@@H](O)[C@@H]1O)[C@@]1(C)CC(=O)C(O)=C(C)[C@@H]1C[C@H]3OC(=O)[C@H](OC(=O)/C=C(\C)C(C)(C)OC(C)=O)[C@@H]24 [Bruceantinol]	81.2 ± 62.1	–	–	44.5 ± 2.1	activity at 1 µM ([1]; Homo sapiens, 1 uM): 73.5 ± 11.9%; activity at 1 µM ([2]; Homo sapiens, 1 uM): 119 ± 21.8%
COc1c(O)cc2c(c1O)C(=O)c1c(cc(C)c(O)c1OC)C2=O [Aurantio-obtusin]	119 ± 27.4	–	–	124 ± 2.2	–
CCCCN(CCCC)CC(O)c1cc(Cl)cc2c1-c1ccc(Cl)cc1/C2=C/c1ccc(Cl)cc1 (centres unmarked) [Lumefantrine]	138 ± 9.5	–	–	–	–
C[C@H]1[C@H](OC(=O)CCC(=O)O)O[C@@H]2O[C@@]3(C)CC[C@H]4[C@H](C)CC[C@@H]1[C@@]24OO3 [Artesunate]	107.6 ± 0.8	–	–	–	–
CCN(CC)Cc1cc(Nc2ccnc3cc(Cl)ccc23)ccc1O [Amodiaquine dihydrochloride dihydrate]	91.6 ± 2.9	–	–	102 ± 4.3	–

Molecule	activity at 10 µM ([1]; Homo sapiens, 10 uM) [%]	MMTV-LUC activity (%) DHT− ([1]; 10 uM) [%]	MMTV-LUC activity (%) DHT+ ([2]; 10 uM) [%]	activity at 10 µM ([2]; Homo sapiens, 10 uM) [%]	also measured
C=C1[C@@H](O)[C@]2(O)OC[C@]34[C@H]2[C@@]2(C)[C@H](O)C(=O)C=C(C)[C@@H]2C[C@H]3OC(=O)[C@H](O)[C@@]14O [Eurycomanone]	17.7 ± 2.7	–	–	6.7 ± 0.5	activity at 0.1 µM ([1]; Homo sapiens, 0.1 uM): 128 ± 12%; activity at 1 µM ([1]; Homo sapiens, 1 uM): 59.1 ± 7.6%; activity at 0.1 µM ([2]; Homo sapiens, 0.1 uM): 108 ± 4.7%; activity at 1 µM ([2]; Homo sapiens, 1 uM): 51.3 ± 4.6%
O=C1c2c(O)cccc2C([C@@H]2O[C@H](CO)[C@@H](O)[C@H](O)[C@H]2O)c2cc(CO)cc(O)c21 (some centres unmarked) [Aloin A]	–	108.3 ± 5.0	–	–	–
O=C1c2cccc(O)c2C(=O)c2c(O)cccc21 [1,8-Dihydroxyanthraquinone]	83.8 ± 2.9	–	–	–	–
C=CCc1ccc(O)c(-c2cc(CC=C)ccc2O)c1 [Magnolol]	130 ± 12	–	–	152 ± 8.6	–
COc1ncnc(NS(=O)(=O)c2ccc(N)cc2)c1OC [Sulfadoxine]	116 ± 4.4	–	–	–	–
COC(=O)c1c2c(c3ccccc3c1O)OC(C)(C)C=C2 [Mollugin]	94.7 ± 9.5	–	–	112 ± 11.1	–
CC1=CC(=O)[C@@H](O)[C@]2(C)[C@H]3[C@@H](O)[C@H](O)[C@]4(CO)OC[C@@]35[C@@H](C[C@@H]12)OC(=O)[C@H](O)[C@]54O [Yadanziolide A]	–	8.0 ± 0.6	4.1 ± 0.2	–	MMTV-LUC activity (%) DHT− ([1]; 1 uM): 54.1 ± 13.0%; MMTV-LUC activity (%) DHT+ ([2]; 1 uM): 58.3 ± 10.9%
CC(=O)Oc1cccc2c1C(=O)c1c(OC(C)=O)cc(C(=O)O)cc1C2=O [1,8-Diacetoxy-3-carboxyanthraquinone]	101 ± 8.7	–	–	98.5 ± 2.1	–
CC1=CC(=O)[C@@H](O)[C@@]2(C)[C@H]1[C@@H](O)[C@H]1OC(=O)[C@H](O)[C@]3(O)[C@]14CO[C@]3(CO)[C@@H](O)[C@H](O)[C@H]24 [Yadanziolide B]	–	8.2 ± 1.0	4.0 ± 0.5	–	MMTV-LUC activity (%) DHT− ([1]; 0.1 uM): 23.1 ± 5.2%; MMTV-LUC activity (%) DHT− ([1]; 1 uM): 7.2 ± 0.8%; MMTV-LUC activity (%) DHT+ ([2]; 0.1 uM): 32.8 ± 9.0%; MMTV-LUC activity (%) DHT+ ([2]; 1 uM): 4.2 ± 0.4%
CC(C)=CC[C@H](OC(=O)C=C(C)C)C1=CC(=O)c2c(O)ccc(O)c2C1=O [β, β-Dimethylacrylalkannin]	–	33.3 ± 3.2	19.9 ± 3.5	–	MMTV-LUC activity (%) DHT− ([1]; 1 uM): 100.2 ± 11.4%; MMTV-LUC activity (%) DHT+ ([2]; 1 uM): 107.9 ± 7.0%
CC[C@](C)(O)C(=O)O[C@H]1C(=O)O[C@@H]2C[C@H]3C(C)=CC(=O)[C@@H](O)[C@]3(C)[C@H]3[C@@]4(O)OC[C@]32[C@@H]1[C@@H](C)[C@H]4O [(+)-Glaucarubinone]	–	107.6 ± 26.5	117.7 ± 3.5	–	–
O=C(CCc1ccc(O)cc1)c1c(O)cc(O)cc1O[C@@H]1O[C@H](CO)[C@@H](O)[C@H](O)[C@H]1O [Phlorizin]	154 ± 6.6	–	–	184 ± 12.6	–
CC(=O)O[C@H](CC=C(C)C)C1=CC(=O)c2c(O)ccc(O)c2C1=O [Acetylshikonin]	38.6 ± 3.2	–	–	17.7 ± 1.5	activity at 1 µM ([1]; Homo sapiens, 1 uM): 103 ± 7.7%; activity at 1 µM ([2]; Homo sapiens, 1 uM): 113 ± 16.6%
COC1=C[C@@H](C)[C@@H]2C[C@H]3OC(=O)C[C@H]4C(C)=C(OC)C(=O)[C@H]([C@@]2(C)C1=O)[C@@]34C [Quassin]	110 ± 9	–	–	120 ± 5.6	–
C=C1CC[C@@H]2[C@](C)(CO)[C@H](O)CC[C@@]2(C)[C@@H]1C/C=C1/C(=O)OC[C@H]1O [Andrographolide]	157 ± 4.3	–	–	196 ± 5	–
O=C(O)c1cc(O)c2c(c1)[C@H]([C@H]1c3cc(C(=O)O)cc(O)c3C(=O)c3c(O[C@@H]4O[C@H](CO)[C@@H](O)[C@H](O)[C@H]4O)cccc31)c1cccc(O[C@@H]3O[C@H](CO)[C@@H](O)[C@H](O)[C@H]3O)c1C2=O [Sennoside A]	–	105.5 ± 4.4	–	–	–
CNC(=O)c1ccc(N2C(=S)N(c3ccc(C#N)c(C(F)(F)F)c3)C(=O)C2(C)C)cc1F [Enzalutamide]	79.4 ± 34.6	–	–	–	activity at 1 µM ([1]; Homo sapiens, 1 uM): 87.4 ± 11.3%
O=C(Nc1ccc([N+](=O)[O-])cc1Cl)c1cc(Cl)ccc1O [Niclosamide]	9.4 ± 0.6	–	–	–	activity at 1 µM ([1]; Homo sapiens, 1 uM): 119 ± 10.8%
